Like-named read-outs stand apart in the source and are kept apart here.
What was measured:
CYP2D6 = CYP2D6 (Homo sapiens, UniProt P10635); assay: Inhibition of metabolic enzymes in vitro, human liver microsomes, CYP2D6
Experimental: (§1) Test purpose: In this test, human liver microsomes and CYP enzyme-specific substrates were used to test the effects of different concentrations of compounds to be tested on metabolic rates of enzyme-specific substrates, so as to determine inhibitory effects of these compounds on CYP enzymes in human liver microsomes.
(§2) 1. preparing […] potassium phosphate buffer (pH 7.4);
(§3) 2. preparing stock solutions of compounds to be tested (10 mM), NADPH solutions (8 mM, which was 4 times the final concentration), positive compound stock solutions, substrate stock solutions and human liver microsome solutions (see the table below);
(§4) 3. preparing solutions of compounds to be tested: dissolving 8 μL of 10 mM stock solution of compounds to be tested in 12 μL of acetonitrile, and then using a mixed solution of 40% DMSO and 60% acetonitrile to perform a 1:3 gradient dilution as follows (wherein the concentration was 400 times the final concentration): 4 mM, 1.333 mM, 0.444 mM, 0.148 mM, 0.0494 mM, 0.0165 mM, 0.00549 mM and 0 mM.
(§5) 4. preparing positive control inhibitor solutions: dissolving 8 μL of positive control inhibitor stock solutions in 12 μL of acetonitrile, and then using a mixed solution of 40% DMSO and 60% acetonitrile to perform a 1:3 gradient dilution as follows (wherein the concentration was 400 times the final concentration, which was described in the table below); […]

CYP2C19 = biological target: T1, CYP2C19 (Homo sapiens, UniProt P33261); assay: Inhibition of metabolic enzymes in vitro, human liver microsomes, CYP2C19; assay type: in vitro ADME; settings: substrate S-Mephenytoin
T1 construct: human liver microsomes and CYP enzyme-specific substrates were used; from tissue; host or cells: human liver microsomes
Experimental: as §1, §2, §3, §4, §5

CYP1A2 = biological target: T2, CYP1A2 (Homo sapiens, UniProt P05177); assay: Inhibition of metabolic enzymes in vitro, human liver microsomes, CYP1A2; assay type: in vitro ADME; settings: substrate Phenacetin
T2 construct: human liver microsomes and CYP enzyme-specific substrates were used; from tissue; host or cells: human liver microsomes
T2 sequence (P05177 1-516): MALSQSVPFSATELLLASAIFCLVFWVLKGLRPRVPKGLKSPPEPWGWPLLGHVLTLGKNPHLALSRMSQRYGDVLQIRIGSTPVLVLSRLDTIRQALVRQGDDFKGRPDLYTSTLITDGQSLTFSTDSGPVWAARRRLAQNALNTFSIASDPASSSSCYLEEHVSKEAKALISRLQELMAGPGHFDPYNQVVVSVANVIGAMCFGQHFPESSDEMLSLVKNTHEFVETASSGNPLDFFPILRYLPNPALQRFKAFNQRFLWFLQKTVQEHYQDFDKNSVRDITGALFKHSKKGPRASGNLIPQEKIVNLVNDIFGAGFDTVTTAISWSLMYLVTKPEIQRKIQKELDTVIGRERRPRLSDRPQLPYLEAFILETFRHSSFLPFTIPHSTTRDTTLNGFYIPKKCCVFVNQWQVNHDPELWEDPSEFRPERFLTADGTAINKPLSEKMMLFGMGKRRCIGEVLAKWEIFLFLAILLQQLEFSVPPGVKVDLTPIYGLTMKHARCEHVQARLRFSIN
Experimental: as §1, §2, §3, §4, §5

CYP2C9 = biological target: T3, CYP2C9 (Homo sapiens, UniProt P11712); assay: Inhibition of metabolic enzymes in vitro, human liver microsomes, CYP2C9; assay type: in vitro ADME; settings: substrate Diclofenac
T3 construct: human liver microsomes and CYP enzyme-specific substrates were used; from tissue; host or cells: human liver microsomes
Experimental: as §1, §2, §3, §4, §5

CYP3A4 = CYP3A4 (Homo sapiens, UniProt P08684); assay: Inhibition of metabolic enzymes in vitro, human liver microsomes, CYP3A4
Experimental: as §1, §2, §3
4. preparing positive control inhibitor solutions: dissolving 8 μL of positive control inhibitor stock solutions in 12 μL of acetonitrile, and then using a mixed solution of 40% DMSO and 60% acetonitrile to perform a 1:3 gradient dilution as follows (wherein the concentration was 400 times the final concentration, which was described in the table below);
6. preparing mixed solutions of positive control compounds and human liver microsomes: adding 200 μL of 0.2 mg/mL human liver microsomes to a 96-well plate, and adding 1 μL of diluted solutions of positive control compounds;
7. dispensing 30 μL of mixed solutions of the compounds and human liver microsomes to a 96-well plate, and then adding […] substrate solutions: adding […] preheated NADPH solutions to a preheated reaction plate and mixing evenly to start the reaction;
8. incubating the reaction plate at 37° C.; 3A4 was reacted for 5 minutes; 1A2, 2C9 and 2D6 were reacted for 10 minutes; 2C19 was reacted for 45 minutes;
9, after completion of the addition, adding 120 μL of acetonitrile containing internal standard to terminate the reaction: after terminating the reaction, shaking the sample on a shaker at 600 rpm/min for 10 minutes and centrifuging same at 3220×g for 15 minutes; after centrifugation, taking out 50 μL of supernatant and mixing same with 50 μL of water for analysis by LC-MS/MS.
According to the following equation, the data was plotted and fitted using a dose-response model in GraphPad Prism software to calculate IC50.
Y=Bottom+(Top−Bottom)/(1+10^((Log IC50−X)×HillSlope))
X represents the logarithm concentration of the inhibitor, and Y represents the relative activity of the enzyme at a certain inhibitor concentration (relative to the condition without inhibitor).

MIA PaCa-2 cells = assay: Proliferation inhibition on MIA PaCa-2 cell line by CTG method; assay type: cell-based, human; settings: for IC50: Homo sapiens, MIA PaCa-2, Table 2, CellTiter Glo, 120 hours
Experimental: Experiments for Testing Proliferation Inhibition of Compounds on MIA PaCa-2 Cell Lines by CTG Method
40 μL of MIA PaCa-2 cell suspension was added to each well (except for peripheral wells) of 384-well plates. The plates were placed in a carbon dioxide incubator overnight. […] The plates were incubated in a carbon dioxide incubator for 120 hours. To the 384-well plates were added 25 μL of CellTiter Glo reagents, and the mixture was shaken in the dark for 10 minutes and incubated for 10 minutes. The plates were read on the EnVision plate reader. XLFit was used to draw inhibition rate curves of efficacy and IC50 values were calculated. […] “---” represents not determined.
MIA PaCa-2 was a human pancreatic cancer cell with KRAS G12C mutation. The activity of compounds can be evaluated by detecting the proliferation inhibitory activity of these compounds on such cell line.

NCI-H358 cells = assay: Proliferation inhibition on NCI-H358 cell line by CTG method; assay type: cell-based, human; settings: for IC50: Homo sapiens, NCI-H358, 120 h, CellTiter Glo, 120 hours
Experimental: (§6) NCI-H358 was a human non-small cell lung cancer cell with KRAS G12C mutation; A549 was a human non-small cell lung cancer cell with KRAS G12V mutation: and A375 was a wild-type malignant melanoma cell. The inhibitory effects of compounds on different mutations were evaluated by testing the proliferation inhibitory activity of these compounds on the three cell lines.
(§7) 40 μL of cell suspension to be tested was added to each well (except for peripheral wells) of three 384-well plates (plate 1: NCI-H358 cell suspension: plate 2: A549 cell suspension: plate 3: A375 cell suspension). The plates were placed in a carbon dioxide incubator overnight. […] The plates were incubated in a carbon dioxide incubator for 120 hours. To the 384-well plates were added 25 μL of CellTiter Glo reagents, and the mixture was shaken in the dark for 10 minutes and incubated for 10 minutes. The plates were read on the EnVision plate reader. XLFit was used to draw inhibition rate curves of efficacy and IC50 values were calculated. […] “---” represents not determined.
Experiments for Testing Proliferation Inhibition of Compounds on NCI-H358 Cell Lines by CTG Method

A549 cells = assay: Proliferation inhibition on A549 cell line by CTG method; assay type: cell-based, human; settings: Homo sapiens, A549, 120 h, Table 1, CellTiter Glo, class symbol
Experimental: as §6, §7

A375 cells = assay: Proliferation inhibition on A375 cell line by CTG method; assay type: cell-based; settings: Homo sapiens, A-375; Table 1; CellTiter Glo, 120 hours; class symbol
Experimental: as §6, §7

[1] = IC50 (μM) CYP3A4 (Midazolam), substrate Midazolam
[2] = IC50 (μM) CYP3A4 (Testosterone), substrate Testosterone
[3] = Table 1, number, read-out: IC50 (μM): (H358)
[4] = Table 2, number, read-out: IC50 (nM) H358
[5] = Table 1, class symbol, read-out: IC50 (μM): (H358)

Sequence of CYP3A4 (P08684 whole entry): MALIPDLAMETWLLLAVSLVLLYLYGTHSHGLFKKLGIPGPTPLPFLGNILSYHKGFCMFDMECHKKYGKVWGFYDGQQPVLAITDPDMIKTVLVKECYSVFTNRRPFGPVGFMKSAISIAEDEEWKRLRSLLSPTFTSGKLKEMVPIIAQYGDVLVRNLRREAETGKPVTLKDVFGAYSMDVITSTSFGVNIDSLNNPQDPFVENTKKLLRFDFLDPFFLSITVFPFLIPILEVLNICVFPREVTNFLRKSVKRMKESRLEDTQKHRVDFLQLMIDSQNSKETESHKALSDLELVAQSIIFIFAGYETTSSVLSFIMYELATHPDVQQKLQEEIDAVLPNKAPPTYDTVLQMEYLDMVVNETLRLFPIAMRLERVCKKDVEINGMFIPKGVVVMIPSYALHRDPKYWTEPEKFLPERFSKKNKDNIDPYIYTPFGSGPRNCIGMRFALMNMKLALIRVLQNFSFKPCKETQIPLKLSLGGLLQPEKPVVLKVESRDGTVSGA
T1 sequence (P33261 whole entry): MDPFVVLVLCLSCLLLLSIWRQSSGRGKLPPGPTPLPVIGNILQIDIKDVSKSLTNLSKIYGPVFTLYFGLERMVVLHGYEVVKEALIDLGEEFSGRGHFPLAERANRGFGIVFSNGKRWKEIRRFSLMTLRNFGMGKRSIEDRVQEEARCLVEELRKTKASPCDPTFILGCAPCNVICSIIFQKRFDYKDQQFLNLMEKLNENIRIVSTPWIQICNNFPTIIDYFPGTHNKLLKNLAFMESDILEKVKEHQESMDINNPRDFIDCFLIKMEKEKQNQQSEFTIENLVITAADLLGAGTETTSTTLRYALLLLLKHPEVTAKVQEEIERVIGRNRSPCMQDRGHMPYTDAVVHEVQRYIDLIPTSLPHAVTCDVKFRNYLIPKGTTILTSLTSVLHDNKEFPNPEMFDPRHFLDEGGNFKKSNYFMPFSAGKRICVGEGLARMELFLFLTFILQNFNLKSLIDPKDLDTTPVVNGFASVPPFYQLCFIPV
T3 sequence (P11712 whole entry): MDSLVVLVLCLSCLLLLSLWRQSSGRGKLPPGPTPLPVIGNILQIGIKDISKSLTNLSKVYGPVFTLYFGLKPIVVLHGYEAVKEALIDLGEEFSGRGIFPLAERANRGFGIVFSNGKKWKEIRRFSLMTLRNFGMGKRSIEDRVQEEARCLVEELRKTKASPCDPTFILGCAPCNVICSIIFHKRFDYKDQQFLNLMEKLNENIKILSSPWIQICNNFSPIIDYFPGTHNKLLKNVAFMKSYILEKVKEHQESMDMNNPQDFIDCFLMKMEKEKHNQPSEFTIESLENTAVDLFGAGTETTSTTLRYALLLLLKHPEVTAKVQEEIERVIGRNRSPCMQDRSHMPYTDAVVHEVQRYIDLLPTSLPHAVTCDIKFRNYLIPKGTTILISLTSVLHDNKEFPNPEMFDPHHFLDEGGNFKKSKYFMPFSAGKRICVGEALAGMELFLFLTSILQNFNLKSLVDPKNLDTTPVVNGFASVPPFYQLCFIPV
Sequence of CYP2D6 (P10635 whole entry): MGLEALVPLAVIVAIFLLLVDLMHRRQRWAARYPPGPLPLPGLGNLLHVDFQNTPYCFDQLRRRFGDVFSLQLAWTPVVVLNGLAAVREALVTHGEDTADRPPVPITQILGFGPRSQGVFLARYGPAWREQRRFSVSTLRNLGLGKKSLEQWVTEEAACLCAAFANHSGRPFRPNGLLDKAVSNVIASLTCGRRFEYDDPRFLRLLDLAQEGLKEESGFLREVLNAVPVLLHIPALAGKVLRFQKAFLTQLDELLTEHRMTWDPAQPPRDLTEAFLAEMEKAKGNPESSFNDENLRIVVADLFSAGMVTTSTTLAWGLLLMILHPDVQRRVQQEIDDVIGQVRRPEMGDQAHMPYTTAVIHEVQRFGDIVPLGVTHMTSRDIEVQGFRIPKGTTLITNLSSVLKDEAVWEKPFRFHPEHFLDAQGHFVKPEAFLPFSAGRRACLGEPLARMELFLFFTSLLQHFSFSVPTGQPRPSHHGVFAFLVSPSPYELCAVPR

C=CC(=O)N1CCN(c2nc(=O)n(-c3c(C)ccnc3C(C)C)c3nc(-c4c(O)cccc4F)c(F)cc23)[C@@H](C)C1 (atropisomer, axis not shown) [AMG-510]
IC50 (CYP2D6): > 10000 nM
IC50 (CYP2C19): > 10 µM
IC50 (CYP1A2): > 10 µM
IC50 (CYP2C9): > 10 µM
IC50 (CYP3A4; [1]): 4.46 µM
IC50 (CYP3A4; [2]): > 10 µM

C=CC(=O)N1CCN(c2nc(OC[C@@H]3CCCN3C)nc3c2CCN(c2ccccc2C(F)(F)F)C3)C[C@@H]1CC#N [Comparative compound 1′, reference compound]
IC50 (MIA PaCa-2 cells; number): 3.9 nM
IC50 (NCI-H358 cells; [3]): 0.0073 µM
IC50 (NCI-H358 cells; [4]): 0.0073 µM

C=CC(=O)N1CCN(c2nc(OC[C@@H]3CCCN3C)nc3c2CC[C@H](c2ccccc2C(F)(F)F)C3)C[C@@H]1CC#N [Comparative compound 3′, reference compound]
IC50 (MIA PaCa-2 cells; number): 8.3 nM

C=CC(=O)N1CCN(c2nc(OC[C@@H]3CCCN3C)nc3c2COC(c2ccccc2C(F)(F)F)C3)C[C@@H]1CC#N (stereo partly shown) [Compound 2-2]
IC50 (A549 cells): > 1 µM
IC50 (MIA PaCa-2 cells; number): 1.9 nM
proliferation inhibitory activity, comparison in words (MIA PaCa-2 cells; text on Table 2 (H358 and MIA PaCa-2 cells)): significantly better than that of the corresponding comparative compounds 1′ and 3′
IC50 (A375 cells): > 1 µM
IC50 (NCI-H358 cells; [5]): < 1 µM
IC50 (NCI-H358 cells; [3]): 0.0025 µM
IC50 (NCI-H358 cells; [4]): 0.0025 µM
proliferation inhibitory activity on NCI-H358 cells, in words (NCI-H358 cells; Table 1): significantly better than that of the corresponding comparative compound 1′

C=CC(=O)N1CCN(c2nc(OC(C)CN(C)C)nc3c2COC(c2cccc4cccc(C)c24)C3)C[C@@H]1CC#N (stereo partly shown) [Compound 14]
IC50 (A549 cells): > 1 µM
IC50 (A375 cells): > 1 µM
IC50 (NCI-H358 cells; [5]): < 1 µM

C=CC(=O)N1CCN(c2nc(OC[C@@H]3CC(F)(F)CN3C)nc3c2COC(c2cccc4cccc(C)c24)C3)C[C@@H]1CC#N (stereo partly shown) [Compound 15]
IC50 (A549 cells): > 1 µM
IC50 (A375 cells): > 1 µM
IC50 (NCI-H358 cells; [5]): < 1 µM

C=CC(=O)N1CCN(c2nc(OC[C@H]3CCCN3C)nc3c2COC(c2cccc4cccc(C)c24)C3)C[C@@H]1CC#N (stereo partly shown) [Compound 16]
IC50 (A549 cells): > 1 µM
IC50 (A375 cells): > 1 µM
IC50 (NCI-H358 cells; [5]): < 1 µM

Cc1cccc2cccc(C3Cc4nc(OC[C@@H]5CCCN5C)nc(N5CCN(C(=O)/C=C/CN(C)C)[C@@H](CC#N)C5)c4CO3)c12 (stereo partly shown) [Compound 17]
IC50 (A549 cells): > 1 µM
IC50 (A375 cells): > 1 µM
IC50 (NCI-H358 cells; [5]): < 1 µM

C=C(F)C(=O)N1CCN(c2nc(OC[C@H]3CCCN3C)nc3c2COC(c2ccccc2C(F)(F)F)C3)C[C@@H]1CC#N (stereo partly shown) [Compound 19-2]
IC50 (A549 cells): > 1 µM
IC50 (A375 cells): > 1 µM
IC50 (NCI-H358 cells; [5]): < 1 µM

CC#CC(=O)N1CCN(c2nc(OC[C@@H]3CCCN3C)nc3c2COC(c2cccc4cccc(C)c24)C3)C[C@@H]1CC#N (stereo partly shown) [Compound 24]
IC50 (A549 cells): > 1 µM
IC50 (A375 cells): > 1 µM
IC50 (NCI-H358 cells; [5]): < 1 µM

C=CC(=O)N1CCN(c2nc(OC[C@@H]3CCCN3C)nc3c2COC(c2cccc4cccc(Cl)c24)C3)C[C@@H]1CC#N (stereo partly shown) [Compound 25]
IC50 (A549 cells): > 1 µM
IC50 (A375 cells): > 1 µM
IC50 (NCI-H358 cells; [5]): < 1 µM

C=C(F)C(=O)N1CCN(c2nc(OC[C@@H]3CCCN3C)nc3c2COC(c2ccccc2Cl)C3)C[C@@H]1CC#N (stereo partly shown) [Compound 30]
IC50 (A549 cells): > 1 µM
IC50 (A375 cells): > 1 µM
IC50 (NCI-H358 cells; [5]): < 1 µM

Cc1cccc2cccc(C3Cc4nc(OC[C@@H]5CCCN5C)nc(N5CCN(C(=O)/C=C/CN6CCOCC6)[C@@H](CC#N)C5)c4CO3)c12 (stereo partly shown) [Compound 31]
IC50 (A549 cells): > 1 µM
IC50 (A375 cells): > 1 µM
IC50 (NCI-H358 cells; [5]): < 1 µM

C=C(F)C(=O)N1CCN(c2nc(OC[C@H]3CCCN3C)nc3c2COC(c2cccc4cccc(Cl)c24)C3)C[C@@H]1CC#N (stereo partly shown) [Compound 32-2]
IC50 (A549 cells): > 1 µM
IC50 (A375 cells): > 1 µM
IC50 (NCI-H358 cells; [5]): < 1 µM

C=CC(=O)N1CCN(c2nc(OC[C@@H]3CCCN3C)nc3c2COC(c2cncc4ccccc24)C3)C[C@@H]1CC#N (stereo partly shown) [Compound 40]
IC50 (MIA PaCa-2 cells; class symbol): < 1000 nM

C=C(F)C(=O)N1CCN(c2nc(OC[C@@H]3CCCN3C)nc3c2CCN(c2cccc4cccc(Cl)c24)C3)C[C@@H]1CC#N [MRTX849]
IC50 (CYP2D6): > 10000 nM
IC50 (CYP2C19): > 10 µM
IC50 (CYP1A2): > 10 µM
IC50 (CYP2C9): 2.29 µM
IC50 (CYP3A4; [1]): 5.92 µM
IC50 (CYP3A4; [2]): 7.85 µM

— patent US20220315598A1, “Oxygen-containing Heterocyclic Compound, Preparation Method Therefor and Use Thereof” (SHANGHAI YINGLI PHARMACEUTICAL CO., LTD, priority 2019, published 2022)
